In patent publication US20240269106A1, “SMALL MOLECULE MODULATOR TARGETING A RARE HISTONE MODIFICATION REGULATING ADIPOGENESIS AND PHARMACEUTICAL FORMULATION THEREOF” (COUNCIL OF SCIENTIFIC AND INDUSTRIAL RESEARCH AN INDIAN …, priority 2021, published 2024):

Tests used:
full length p300 [1] = molecular target: T1, full length p300 (Homo sapiens, UniProt Q09472); experiment: In vitro p300 butyrylation assay (immunoblot); assay type: biochemical; conditions: 25 μM
T1 construct: Purified full length p300 protein was used for in vitro acetylation/butyrylation assay
Experimental: (§1) Purified full length p300 protein was used for in vitro acetylation/butyrylation assay in presence/absence of different compounds. Acylation reactions were performed in reaction buffer (25 mM Tris-HCl PH 7.5, 100 mM NaCl, 0.1 mM EDTA, 1 mM DTT, 10% Glycerol, 1×PIC) with 100 ng/ml TSA, and 50 μM Butyryl-CoA/Acetyl COA. Xenopus histone H3 (500 ng) was used as the substrate and p300 (10,000 cpm activity) was used as the enzyme. Reactions were incubated in presence or absence of small molecule modulators (including compound of Formula I) for 10 minutes at 30° C., followed by initiation of the acetylation/butyrylation reaction by the addition of acetyl/butyryl CoA. After a further 10 minutes, reactions were stopped by addition of Laemmli buffer and samples were used for immunoblotting.
(§2) Immunoblotting with antibodies against acetylated H3K18, acetylated H3K9 and pan-butyryl lysine was performed to check for the relative inhibition of acetyl transferase and butyryl transferase activities of full length p300 by garcinol, isogarcinol and its different derivatives including compound of Formula I at different concentrations. FIG. 2i depicts the effect of garcinol, isogarcinol and two of its derivatives LTK-13 and LTK-14 on p300 catalysed acetyltransferase activity. […] FIG. 2ii depicts the effect of LTK-14 on acetylation and butyrylation catalysed by p300. Lane 1, enzyme alone; Lane 2-4, enzyme+LTK-14 at concentrations 500 nM, 2 μM and 10 μM, respectively. LTK-14 could inhibit acetylation at 10 μM concentration while butyrylation was inhibited at 2 μM concentration. FIG. 2iii depicts the effect of compound x on acetylation and butyrylation catalysed by p300. Lane 1, enzyme alone; Lane 2, enzyme+DMSO; Lane 3-6, enzyme+compound x at concentrations 10, 15, 20 and 25 μM, respectively.

full length p300 [2] = molecular target: T1, full length p300; experiment: In vitro p300 acetylation assay (immunoblot); assay type: biochemical; conditions: same range of concentration (10, 15, 20 and 25 μM)
Experimental: as §1, §2

[3] = system: histone butyrylation and acetylation in liver and adipose tissue; experiment: Histone modifications in liver and adipose tissue of db/db mice; assay type: in vivo
Experimental: Liver sample sectioning and immunohistochemical staining was performed using the same protocol as mentioned in example 15. It was observed that H4K5 butyrylation in liver increased in the db/db obese mice liver but was inhibited in presence of compound of Formula I (FIG. 13A). […] Acid extraction of histones was performed from the epididymal fat pads of mice using the same protocol as mentioned in example 7. It was observed that H4K5 butyrylation was reduced in the adipocytes of db/db mice treated with compound of Formula I compared to db/db mice treated with vehicle control (FIG. 13B).

3T3L1 cells = experiment: Adipogenesis of 3T3L1 cell line, Oil Red-O staining; assay type: cell-based
Experimental: The preadipocyte cell line 3T3L1 was seeded in complete DMEM (supplemented with 10% FBS). Once the cells reached almost full confluent state, they were treated with differentiation media (2 μg/mL Insulin, 0.5 mM IBMX and 1 μM Dexamethasone) for 2 days. After the differentiation induction, the cells were kept in maintenance media (2 μg/mL Insulin) for another 4-6 days with media change given every 2 days. The completion of adipogenesis was confirmed by the observation of lipid droplet accumulation in most of the cells. On the 6th day post induction of differentiation the cells were fixed with 3.7% formaldehyde solution followed by staining with Oil Red-O dye (prepared in 60% isopropanol) for 1 hour at room temperature. The incorporated dye was extracted using isopropanol and absorbance values were determined spectrophotometrically at 510 nm to estimate total amount of lipid accumulation under different experimental conditions.

[4] = system: genetically obese db/db mice; experiment: Liver and adipose tissue of genetically obese db/db mice; assay type: in vivo
From the text: After the treatment of the mice with compound of Formula I for one month, the mice were sacrificed and their liver and epididymal fat pads were harvested. The organs were individually weighed and then processed for morphology study by hematoxylin and eosin staining.
Average weights of liver (i) and adipose tissue (ii) of the mice of the three different groups are represented by bar graphs (FIG. 11); n=4 in each group:one-way ANOVA with Dunnett's multiple comparison; * P<0.05, ** P<0.01, *** P<0.001, ns: not significant. Representative images of morphology of adipose tissue (iii) and liver (iv) from the mice of the three groups, as studied by hematoxylin and eosin staining.

T1 sequence (Q09472 whole entry, species assumed): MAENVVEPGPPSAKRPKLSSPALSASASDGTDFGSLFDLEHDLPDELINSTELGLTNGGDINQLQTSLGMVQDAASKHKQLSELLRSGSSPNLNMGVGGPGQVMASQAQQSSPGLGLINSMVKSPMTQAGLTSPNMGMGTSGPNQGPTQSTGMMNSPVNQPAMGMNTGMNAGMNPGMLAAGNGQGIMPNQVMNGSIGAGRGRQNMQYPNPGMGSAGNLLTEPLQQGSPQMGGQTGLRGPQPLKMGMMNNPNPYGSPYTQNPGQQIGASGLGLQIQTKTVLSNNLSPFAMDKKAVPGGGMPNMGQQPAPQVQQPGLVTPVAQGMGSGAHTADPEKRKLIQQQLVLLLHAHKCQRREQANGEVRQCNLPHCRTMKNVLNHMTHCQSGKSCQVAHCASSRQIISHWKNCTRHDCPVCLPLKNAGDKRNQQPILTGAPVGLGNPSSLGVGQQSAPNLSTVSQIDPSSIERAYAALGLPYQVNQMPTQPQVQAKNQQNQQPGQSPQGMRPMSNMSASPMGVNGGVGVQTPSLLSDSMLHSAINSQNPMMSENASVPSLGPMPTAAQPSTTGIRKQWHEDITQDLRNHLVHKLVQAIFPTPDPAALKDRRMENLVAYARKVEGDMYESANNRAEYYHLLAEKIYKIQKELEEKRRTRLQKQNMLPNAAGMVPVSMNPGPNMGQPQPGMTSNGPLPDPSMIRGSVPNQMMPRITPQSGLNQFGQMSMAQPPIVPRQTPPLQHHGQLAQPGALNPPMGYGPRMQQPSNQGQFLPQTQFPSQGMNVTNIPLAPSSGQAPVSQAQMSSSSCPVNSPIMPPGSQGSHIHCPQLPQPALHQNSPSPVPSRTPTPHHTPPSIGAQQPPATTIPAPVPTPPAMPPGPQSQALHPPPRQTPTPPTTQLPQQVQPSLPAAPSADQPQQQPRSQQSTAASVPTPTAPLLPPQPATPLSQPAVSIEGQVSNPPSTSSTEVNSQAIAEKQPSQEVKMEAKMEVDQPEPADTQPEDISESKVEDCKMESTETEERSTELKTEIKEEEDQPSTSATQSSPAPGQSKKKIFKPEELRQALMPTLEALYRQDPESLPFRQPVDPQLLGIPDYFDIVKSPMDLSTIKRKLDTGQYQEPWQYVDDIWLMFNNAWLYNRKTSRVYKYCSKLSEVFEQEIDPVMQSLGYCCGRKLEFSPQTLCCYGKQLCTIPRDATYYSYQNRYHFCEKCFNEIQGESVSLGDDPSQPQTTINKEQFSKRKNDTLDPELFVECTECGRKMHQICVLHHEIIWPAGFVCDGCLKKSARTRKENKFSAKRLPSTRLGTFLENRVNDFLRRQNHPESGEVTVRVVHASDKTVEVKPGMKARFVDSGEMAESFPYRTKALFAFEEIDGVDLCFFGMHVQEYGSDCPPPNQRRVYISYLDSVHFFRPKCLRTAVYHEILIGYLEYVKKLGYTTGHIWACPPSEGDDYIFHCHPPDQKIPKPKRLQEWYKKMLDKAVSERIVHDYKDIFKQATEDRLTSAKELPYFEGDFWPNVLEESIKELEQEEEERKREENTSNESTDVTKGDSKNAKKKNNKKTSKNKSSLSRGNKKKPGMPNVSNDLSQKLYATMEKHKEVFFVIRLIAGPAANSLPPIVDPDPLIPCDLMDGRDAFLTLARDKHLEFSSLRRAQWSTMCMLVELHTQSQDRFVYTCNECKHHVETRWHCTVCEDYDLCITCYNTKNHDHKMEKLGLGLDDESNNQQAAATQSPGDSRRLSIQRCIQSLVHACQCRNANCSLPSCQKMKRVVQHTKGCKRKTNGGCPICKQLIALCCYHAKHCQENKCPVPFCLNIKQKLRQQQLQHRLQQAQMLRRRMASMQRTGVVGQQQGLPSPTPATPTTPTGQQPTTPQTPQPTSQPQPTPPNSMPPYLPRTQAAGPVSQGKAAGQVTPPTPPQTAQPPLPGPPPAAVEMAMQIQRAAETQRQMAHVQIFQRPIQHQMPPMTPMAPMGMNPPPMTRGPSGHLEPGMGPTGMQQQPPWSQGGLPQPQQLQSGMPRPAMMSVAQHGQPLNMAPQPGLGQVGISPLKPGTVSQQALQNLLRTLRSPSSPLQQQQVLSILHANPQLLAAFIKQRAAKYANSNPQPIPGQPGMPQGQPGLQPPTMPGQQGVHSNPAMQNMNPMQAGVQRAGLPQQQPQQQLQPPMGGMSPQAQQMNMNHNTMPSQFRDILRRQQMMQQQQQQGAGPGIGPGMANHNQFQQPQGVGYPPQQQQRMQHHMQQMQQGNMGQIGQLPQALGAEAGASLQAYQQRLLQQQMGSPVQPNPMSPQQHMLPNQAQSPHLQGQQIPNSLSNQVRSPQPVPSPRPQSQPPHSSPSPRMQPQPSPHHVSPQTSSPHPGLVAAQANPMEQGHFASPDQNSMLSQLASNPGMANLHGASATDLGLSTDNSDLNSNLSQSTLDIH

SMILES: COc1ccc(C(=O)C2=C3OC(C)(C)[C@@H](CC=C(C)C)C[C@@]34C[C@@H](CC=C(C)C)C(C)(C)[C@@](CC=C(C)C)(C2=O)C4=O)cc1OC [Compound X]
- effect on butyrylation catalysed by p300 (full length p300 [1]): significant inhibitory effect
- effect on acetylation catalysed by p300 (full length p300 [2]): without affecting acetylation
- H4K5 butyrylation in adipocytes ([3]; epididymal fat pads, immunoblot): reduced
- H4K5 butyrylation in liver ([3]; immunohistochemistry): inhibited
- H4K12 and H3K14 acetylation in liver ([3]; immunohistochemistry): not affected
- adipogenesis, Oil-Red O staining (3T3L1 cells): inhibition of adipogenesis
- liver and epididymal fat pad weights ([4]; between db/db vehicle and db+/-): intermediate weights
- symptoms of liver steatosis and adipose tissue hypertrophy ([4]; one month treatment): significantly reduced
